{"source": "patent US20080319038A1", "about": "“PREVENTATIVE OR THERAPEUTIC AGENT FOR ACUTE RENAL FAILURE” (priority 2005, published 2008)", "key": {"[1]": {"test_system": "mice with LPS-induced inflammation", "experiment": "Effect of Fidarestat administration on renal damage in mice with lipopolysaccharide (LPS)-induced inflammation", "format": "in vivo, CD-1 mice", "method": "Eight-week-old male CD-1 mice were used in the experiment. The mice were divided into 3 groups of normal control group (drug and LPS non-administration group), LPS control group (drug non-administration/LPS administration group), and LPS/Fidarestat administration group (Fidarestat and LPS administration group). First, 10 mg/kg of Fidarestat (which was prepared with a solubilizing agent solution) was administered into the caudal vein of the Fidarestat administration group and the solubilizing agent solution was administered into the caudal vein of the drug non-administration group. After 5 minutes, Lipopolysaccharides (LPS: Escherichia coli; 0111: B4, Sigma) was prepared with a physiological salt solution, which was administered to the LPS administration group intraperitoneally at a concentration of 2 mg/kg and a physiological salt solution was administered to the LPS non-administration group intraperitoneally. After 24 hours, each of the groups of mice was anesthetized by ether inhalation and blood was collected from the abdominal vein using a heparinized syringe. Then, centrifugation was carried out under the following conditions: at 4 degree C., at 1,000×g, for 10 min. Plasma was then obtained. Blood urea nitrogen (BUN) and creatinine were measured using an autoanalyzer (Hitachi). In this regard, as a solubilizing agent, NMDG (N-methyl-D-glucamine) was used."}, "[2]": {"test_system": "ischemia reperfusion mice", "experiment": "Effect of Fidarestat administration on renal damage in ischemia reperfusion mice", "format": "in vivo, C57BL/6 mice", "conditions": "for BUN / CK / Creatinine: blood, 3 h ischemia, 24 h reperfusion, Average ± SEM, n = 4", "method": "Sixteen- to twenty-week-old male C57BL/6 mice (Wild) were used in the experiment. The mice were divided into 4 groups, which were designated as sham-operation group (normal control group), ischemia operation group (ischemia reperfusion control group), ischemia operation+Fidarestat 40 mg/kg administration group (ischemia reperfusion/Fidarestat 40 mg/kg administration group), and ischemia operation+Fidarestat 150 mg/kg administration group (ischemia reperfusion/Fidarestat 150 mg/kg administration group), respectively. 40 or 150 mg/kg/day of Fidarestat was mixed in their diet and administered to the ischemia operation+Fidarestat administration groups 7 days before ischemia operation. Plantar blood flow in these mice was measured with a laser blood flow meter under isoflurane anesthesia, and then the abdomen was incised. The abdominal aorta was exposed under a stereoscopic microscope and clipping was carried out at the portion distal to the renal artery bifurcation. Further, the right common iliac artery was also clipped and the right femoral artery was finally clipped. Thereafter, the abdomen was closed. The time of ischemia onset was set to the time when the femoral artery was clipped. From the time of ischemia onset, plantar blood flow was measured with a laser blood flow meter and the ischemia was confirmed. The clipping was released in order of the right femoral artery, right common iliac artery, and abdominal aorta in 3 hours from the ischemia onset and reperfusion was performed. At the time, the reperfusion status was confirmed with the laser blood flow meter. The reperfusion time was set to the time when the clipping of the aorta was released. The reperfusion was performed for 24 hours and the general condition was observed. Thereafter, heart blood was collected from the right atrium under isoflurane anesthesia. The collected heart blood was mixed with heparin and centrifuged at 3000 g. Then, the supernatant was collected therefrom, which was frozen for preservation at −80 degrees C. to use in a serologic test for CK, BUN, creatinine, and the like."}, "[3]": {"conditions": "plasma, Fidarestat 10 mg/kg caudal vein 5 min before LPS 2 mg/kg i.p., 24 hours after LPS, Average ± SEM, n = 7"}, "[4]": {"conditions": "Fidarestat 40 mg/kg/day in diet from 7 days before ischemia"}, "[5]": {"conditions": "Fidarestat 150 mg/kg/day in diet from 7 days before ischemia"}}, "data": [{"smiles": "NC(=O)[C@@H]1C[C@]2(NC(=O)NC2=O)c2cc(F)ccc2O1", "note": "[Fidarestat, (2S,4S)-6-fluoro-2′,5′-dioxospiro[chroman-4,4′-imidazolidine]-2-carboxamide]", "values": [{"measurement": "effect on renal function impairment", "setting": "[1]; model with LPS-induced inflammation, Fidarestat 10 mg/kg i.v.", "value": "effective"}, {"measurement": "BUN", "setting": "[1]; [3]", "value": "24.3 ± 2.2", "unit": "mg/dL"}, {"measurement": "Creatinine", "setting": "[1]; [3]", "value": "0.067 ± 0.003", "unit": "mg/dL"}, {"measurement": "BUN", "setting": "[2]; [4]", "value": "40 ± 11", "unit": "mg/dL"}, {"measurement": "CK", "setting": "[2]; [4]", "value": "6978 ± 4904", "unit": "IU/L"}, {"measurement": "Creatinine", "setting": "[2]; [4]", "value": "0.12 ± 0.01", "unit": "mg/dL"}, {"measurement": "BUN", "setting": "[2]; [5]", "value": "31 ± 1", "unit": "mg/dL"}, {"measurement": "CK", "setting": "[2]; [5]", "value": "2348 ± 530", "unit": "IU/L"}, {"measurement": "Creatinine", "setting": "[2]; [5]", "value": "0.10 ± 0.01", "unit": "mg/dL"}, {"measurement": "onset of acute renal failure", "setting": "[2]; ischemia reperfusion/Fidarestat 40 mg/kg and 150 mg/kg administration groups", "value": "completely suppressed"}]}]}
